For assay [1], the target named is T1, TthMTA1 (residues 126-372)-Tthp2 crystal complex (Tetrahymena thermophila, UniProt Q22GC0).
T1 construct: gene TTHERM_00704040; N-terminally truncated MTA1 with p2
T1 sequence (Q22GC0 182-428): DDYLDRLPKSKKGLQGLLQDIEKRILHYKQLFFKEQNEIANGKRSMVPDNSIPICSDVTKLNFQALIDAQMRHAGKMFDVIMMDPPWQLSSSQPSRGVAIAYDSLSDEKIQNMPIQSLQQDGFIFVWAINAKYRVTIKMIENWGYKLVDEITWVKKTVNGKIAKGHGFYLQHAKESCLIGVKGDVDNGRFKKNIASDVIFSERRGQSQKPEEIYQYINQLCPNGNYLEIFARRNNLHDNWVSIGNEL
Briefly: X-ray crystal structure, soaking. Format: binding. The following applies: site in MTA1 MTase domain.

The target in assay [2] is T2, TthMTA1 (residues 126–372)-Tthp1-Tthp2 crystal complex (Tetrahymena thermophila, UniProt Q22GC0).
T2 construct: gene TTHERM_00704040; N-terminally truncated MTA1 with p1 and p2; p1 degraded in the crystal, only its HTH domain seen
T2 sequence (Q22GC0 182-428): T1 sequence (Q22GC0 182-428)
Briefly: X-ray crystal structure, soaking. The following applies: site in MTA1 MTase domain. Format: binding.

In another assay the target is T3, TthMTA1-Ptep2 (ITC) (Tetrahymena thermophila, UniProt Q22GC0).
T3 construct: gene TTHERM_00704040
T3 sequence (Q22GC0 57-428): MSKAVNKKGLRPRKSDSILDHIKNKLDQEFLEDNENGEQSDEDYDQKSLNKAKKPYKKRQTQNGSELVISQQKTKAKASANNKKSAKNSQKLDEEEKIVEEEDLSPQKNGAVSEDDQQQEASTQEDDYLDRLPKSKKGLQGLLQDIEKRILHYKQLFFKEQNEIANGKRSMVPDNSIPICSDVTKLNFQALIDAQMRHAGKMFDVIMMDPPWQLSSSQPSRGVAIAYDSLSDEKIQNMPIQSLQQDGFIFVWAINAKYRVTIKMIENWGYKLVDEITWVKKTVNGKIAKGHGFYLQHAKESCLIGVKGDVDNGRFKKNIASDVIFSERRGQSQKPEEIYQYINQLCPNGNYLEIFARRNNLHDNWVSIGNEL
In words: isothermal titration calorimetry. The following applies: 25 °C, pH 7.5, 300 mM NaCl, no DNA. (In general: In ITC the heat of successive injections is recorded.)

Assay [3] concerns the target T4, TthMTA1-TthMTA9-Tthp2 ternary complex (ITC) (Tetrahymena thermophila, UniProt Q22GC0).
T4 construct: gene TTHERM_00704040
Briefly: isothermal titration calorimetry. The following applies: 25 °C, pH 7.5, 300 mM NaCl, no DNA.

Assay [4] has as its target T5, TthMTA1c (MTA1-MTA9-p1-p2 quaternary complex) (Tetrahymena thermophila, UniProt Q22GC0).
T5 construct: gene TTHERM_00704040
Briefly: isothermal titration calorimetry. The settings on record: 25 °C, pH 7.5, 300 mM NaCl, no DNA.

Assay [5] addresses T6, TthMTA1-Tthp1-Tthp2 ternary complex (ITC) (Tetrahymena thermophila, UniProt Q22GC0).
T6 construct: gene TTHERM_00704040
Briefly: isothermal titration calorimetry. The settings on record: 25 °C, pH 7.5, 300 mM NaCl, no DNA.

Assay [6] deals with T7, TthMTA1-Tthp2 binary complex (ITC) (Tetrahymena thermophila, UniProt Q22GC0).
T7 construct: gene TTHERM_00704040
T7 sequence (Q22GC0 entry or part of it, one chain of several): as the sequence (Q22GC0 57-428) above
In words: isothermal titration calorimetry. The following applies: 25 °C, pH 7.5, 300 mM NaCl, no DNA.

The target in assay [7] is Tetrahymena thermophila MTA1 (TthMTA1), untagged (Tetrahymena thermophila). Briefly: SEC; Superdex 200 Increase 10/300; purified proteins mixed at equimolar ratio (1:1, 1:1:1 or 1:1:1:1), 60 min on ice; 20 mM Tris pH 7.5, 300 mM NaCl, 2 mM DTT; peak fractions on SDS-PAGE. For orientation: Size exclusion chromatography separates by hydrodynamic size, large species first.
Assay [8] addresses T8, GST-MTA1 (residues 171-372).
T8 chain: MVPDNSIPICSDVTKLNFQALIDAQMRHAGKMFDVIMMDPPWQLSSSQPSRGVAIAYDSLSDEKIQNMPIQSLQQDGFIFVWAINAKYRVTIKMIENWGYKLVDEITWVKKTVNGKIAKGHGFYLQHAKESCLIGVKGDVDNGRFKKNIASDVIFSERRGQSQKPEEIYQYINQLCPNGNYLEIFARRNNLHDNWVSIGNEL
Briefly: GST pull-down. The following applies: chain shown with the change;; parent: 100.

The target of the next assay is T9, His6GST-Tthp2.
T9 chain: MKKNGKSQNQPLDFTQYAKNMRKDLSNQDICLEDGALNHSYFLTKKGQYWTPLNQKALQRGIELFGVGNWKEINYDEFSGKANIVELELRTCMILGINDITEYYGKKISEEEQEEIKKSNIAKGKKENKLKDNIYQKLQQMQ
Briefly: GST pull-down. The following applies: chain shown with the change;; parent: 100.

We go through five molecules from PMC9174199, “Structural basis for MTA1c-mediated DNA N6-adenine methylation” (Nature Communications, 2022).

T6 sequence (Q22GC0 entry or part of it, one chain of several): as the sequence (Q22GC0 57-428) above
T5 sequence (Q22GC0 entry or part of it, one chain of several): as the sequence (Q22GC0 57-428) above
T4 sequence (Q22GC0 entry or part of it, one chain of several): as the sequence (Q22GC0 57-428) above

Consider `C[S+](CC[C@H](N)C(=O)O)C[C@H]1O[C@@H](n2cnc3c(N)ncnc32)[C@H](O)[C@@H]1O` (stereo partly drawn) [SAM], for which the “X-ray crystal structure, soaking” value in assay [1] (1 mM SAM soak) is “further confirmed by our SAM- and SAH-bound MTA1-p2 structures”; in assay [2] (3.4 Å, 1 mM SAM soak), “SAM donor-bound MTA1-p1-p2 complex”. Besides, the dissociation constant Kd (as a rule, the concentration at which binding is half-saturated) amounted to 67.8 ± 5.45 µM at TthMTA1-Ptep2 (ITC); 3.64 ± 0.56 µM in assay [3]; 2.4 ± 0.26 µM in assay [4]; 14.8 ± 2.71 µM in assay [5]; 44.6 ± 3.4 µM in assay [6].
Take “Tetrahymena thermophila MTA9 (TthMTA9), untagged (natural protein)”: in assay [7], the stoichiometry N (as a rule, the number of molecules, sites or subunits per partner or assembly) worked out at 1.
On to `Nc1ncnc2c1ncn2[C@@H]1O[C@H](CSCC[C@H](N)C(=O)O)[C@@H](O)[C@H]1O` [SAH], for which the “X-ray crystal structure, soaking” value is “further confirmed by our SAM- and SAH-bound MTA1-p2 structures” in [1] (1 mM SAH soak); “the SAH product-bound MTA1-p1-p2 complex by soaking approach” in [2] (3.0 Å, 1 mM SAH soak).

B1: Paramecium tetraurelia MTA9 (PteMTA9), untagged K218A (protein)
chain: MGKNQRESLRMRLRYNEPGSENKRINYFKLNQGYDITEDDSEYMDEQDSYKAFKKIRKYKTKSKEDKVTCDNLEVLLQWKGSINCQSYETDQKKIVVLKKILGTDLSQYAKGVQGIFIDNLFKKDLKNLDISKKLISNGILFIWSDKSLINEILETMENKGFTYIENLVVVQLSLEQALEELNKHMKIEQTEDAVLDNLDFLQQKVQVKDLILHRPSAVLNQSKQVLIMFRKFDEQKSQLELRHQRTPDVLFDIVNNGKSCLKTKEYIYQTIETLLPKSQLMEIFAQKDQPRKGWISVCENK
As for B1, the percent of parent in [8] was 99%.

B2: Tetrahymena thermophila MTA1 (TthMTA1), untagged R358A (protein)
chain: MSKAVNKKGLRPRKSDSILDHIKNKLDQEFLEDNENGEQSDEDYDQKSLNKAKKPYKKRQTQNGSELVISQQKTKAKASANNKKSAKNSQKLDEEEKIVEEEDLSPQKNGAVSEDDQQQEASTQEDDYLDRLPKSKKGLQGLLQDIEKRILHYKQLFFKEQNEIANGKRSMVPDNSIPICSDVTKLNFQALIDAQMRHAGKMFDVIMMDPPWQLSSSQPSRGVAIAYDSLSDEKIQNMPIQSLQQDGFIFVWAINAKYRVTIKMIENWGYKLVDEITWVKKTVNGKIAKGHGFYLQHAKESCLIGVKGDVDNGRFKKNIASDVIFSERRGQSQKPEEIYQYINQLCPNGNYLEIFARANNLHDNWVSIGNEL
With B2, in the assay with His6GST-Tthp2, the percent of parent came out at 4%.
